One assay addresses T1, JAK-3 (Homo sapiens, UniProt P52333).
T1 sequence (P52333 1-1124): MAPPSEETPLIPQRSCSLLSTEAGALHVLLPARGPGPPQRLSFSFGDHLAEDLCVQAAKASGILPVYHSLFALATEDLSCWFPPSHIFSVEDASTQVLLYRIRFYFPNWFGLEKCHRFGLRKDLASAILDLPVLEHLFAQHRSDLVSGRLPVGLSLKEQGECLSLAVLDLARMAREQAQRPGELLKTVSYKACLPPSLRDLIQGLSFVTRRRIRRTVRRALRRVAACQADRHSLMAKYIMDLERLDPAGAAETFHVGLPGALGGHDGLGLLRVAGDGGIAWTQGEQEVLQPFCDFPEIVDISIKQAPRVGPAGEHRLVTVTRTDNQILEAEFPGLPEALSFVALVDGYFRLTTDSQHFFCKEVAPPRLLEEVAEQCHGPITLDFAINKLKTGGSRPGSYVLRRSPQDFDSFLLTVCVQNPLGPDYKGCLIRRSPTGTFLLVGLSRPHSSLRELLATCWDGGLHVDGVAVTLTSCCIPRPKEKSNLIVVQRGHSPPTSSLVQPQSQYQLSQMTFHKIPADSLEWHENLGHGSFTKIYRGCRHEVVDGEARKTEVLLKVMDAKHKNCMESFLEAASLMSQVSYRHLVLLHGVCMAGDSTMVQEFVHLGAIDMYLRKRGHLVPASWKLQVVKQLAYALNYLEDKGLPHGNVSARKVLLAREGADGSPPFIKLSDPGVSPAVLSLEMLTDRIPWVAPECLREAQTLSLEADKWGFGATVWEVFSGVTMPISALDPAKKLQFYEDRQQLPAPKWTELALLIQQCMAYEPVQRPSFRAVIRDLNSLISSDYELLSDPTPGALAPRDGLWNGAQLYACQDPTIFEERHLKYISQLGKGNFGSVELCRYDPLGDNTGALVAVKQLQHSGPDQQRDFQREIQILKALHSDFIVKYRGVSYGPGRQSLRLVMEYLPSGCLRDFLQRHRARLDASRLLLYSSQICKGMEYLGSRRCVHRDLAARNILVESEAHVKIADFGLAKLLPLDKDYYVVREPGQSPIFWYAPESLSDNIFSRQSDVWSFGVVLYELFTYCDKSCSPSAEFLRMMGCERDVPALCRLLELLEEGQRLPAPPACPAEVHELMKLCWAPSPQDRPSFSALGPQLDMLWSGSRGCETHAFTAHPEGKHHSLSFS
Put plainly: JAK-3 inhibition assay. The class given is biochemical. On the procedure: Compounds were screened for their ability to inhibit JAK using the assay shown below. Reactions were carried out in a kinase buffer containing 100 mM HEPES (pH 7.4), 1 mM DTT, 10 mM MgCl2, 25 mM NaCl, and 0.01% BSA.
Substrate concentrations in the assay were 5 μM ATP (200 μCi/μmole ATP) and 1 μM poly(Glu)4Tyr. Reactions were carried out at 25° C. and 1 nM JAK-3.
To each well of a 96 well polycarbonate plate was added 1.5 μL of a candidate JAK-3 inhibitor along with 50 μL of kinase buffer containing 2 μM poly(Glu)4Tyr and 10 μM ATP. This was then mixed and 50 μL of kinase buffer containing 2 nM JAK-3 enzyme was added to start the reaction. After 20 minutes at room temperature (25° C.), the reaction was stopped with 50 μL of 20% trichloroacetic acid (TCA) that also contained 0.4 mM ATP. The entire contents of each well were then transferred to a 96 well glass fiber filter plate using a TomTek Cell Harvester. After washing, 60 μL of scintillation fluid was added and ^33P incorporation detected on a Perkin Elmer TopCount. After removing the mean background values for all of the data points, the data were fit using Prism software to obtain a Ki value (app).

For the next assay, the target named is JAK-2 (Homo sapiens, UniProt O60674). The assay is described as follows: JAK-2 inhibition assay. The class given is biochemical.
Chain of JAK-2 (O60674 whole entry): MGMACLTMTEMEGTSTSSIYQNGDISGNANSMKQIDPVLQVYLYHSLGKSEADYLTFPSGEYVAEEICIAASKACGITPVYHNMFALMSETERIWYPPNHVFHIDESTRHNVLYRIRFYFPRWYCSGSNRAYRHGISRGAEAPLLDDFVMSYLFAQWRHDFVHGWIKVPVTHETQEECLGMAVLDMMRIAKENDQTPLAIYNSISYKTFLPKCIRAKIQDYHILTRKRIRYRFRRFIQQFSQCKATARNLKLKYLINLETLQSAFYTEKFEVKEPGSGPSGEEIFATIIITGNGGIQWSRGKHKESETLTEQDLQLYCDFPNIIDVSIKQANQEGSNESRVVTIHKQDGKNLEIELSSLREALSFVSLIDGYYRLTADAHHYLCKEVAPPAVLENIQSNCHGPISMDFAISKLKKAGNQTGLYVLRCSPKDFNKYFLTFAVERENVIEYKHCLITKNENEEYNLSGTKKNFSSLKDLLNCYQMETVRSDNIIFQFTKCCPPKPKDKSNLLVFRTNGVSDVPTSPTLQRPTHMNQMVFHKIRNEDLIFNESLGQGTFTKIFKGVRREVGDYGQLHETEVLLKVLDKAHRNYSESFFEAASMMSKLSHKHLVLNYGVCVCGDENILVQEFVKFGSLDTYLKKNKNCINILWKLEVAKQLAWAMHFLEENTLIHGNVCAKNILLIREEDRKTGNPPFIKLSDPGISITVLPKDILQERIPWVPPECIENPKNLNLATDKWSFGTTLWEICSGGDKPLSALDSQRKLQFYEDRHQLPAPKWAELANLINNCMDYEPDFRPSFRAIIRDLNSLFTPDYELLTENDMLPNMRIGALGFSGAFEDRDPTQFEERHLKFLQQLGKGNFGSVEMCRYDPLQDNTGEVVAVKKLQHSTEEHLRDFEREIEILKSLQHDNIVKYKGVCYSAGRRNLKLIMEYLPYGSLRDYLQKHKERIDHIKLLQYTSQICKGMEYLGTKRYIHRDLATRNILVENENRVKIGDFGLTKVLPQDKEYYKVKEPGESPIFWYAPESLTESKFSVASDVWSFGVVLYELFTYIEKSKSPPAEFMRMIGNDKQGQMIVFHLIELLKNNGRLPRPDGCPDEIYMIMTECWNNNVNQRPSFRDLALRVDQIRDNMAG

Some results are limits rather than exact numbers.

`Oc1ccc(C2Nc3ccccc3-c3ncnc4[nH]cc2c34)cc1F` (stereo not shown) [Compound 116] registered an inhibitory constant (Ki) on JAK-3 of at most 250 nM.
With `Nc1ccc(C2=Nc3ccccc3-c3ccnc4[nH]cc2c34)cc1` [Compound 94], the values for the inhibition constant (Ki) on JAK-2 and at JAK-3 were under 250 nM and at most 250 nM, respectively.
The matching figures for `Oc1c(F)cc(C2Nc3ccccc3-c3ccnc4[nH]cc2c34)cc1F` (stereo not shown) [Compound 106]: under 250 nM and at most 250 nM.
Take `Cc1cc(C2Nc3ccccc3-c3ccnc4[nH]cc2c34)ccc1F` (stereo not shown) [Compound 138]: the inhibition constant (Ki) on JAK-2 and on JAK-3 was over 2500 nM throughout.
On to `O=[N+]([O-])c1ccc(C2Nc3ccccc3-c3ccnc4[nH]cc2c34)cc1` (stereo not shown) [Compound 86], for which the Ki at JAK-2 and on JAK-3 was over 2500 nM throughout.
In the case of `Fc1cccc(Cl)c1C1Nc2ccccc2-c2ccnc3[nH]cc1c23` (stereo not shown) [Compound 33], the Ki at JAK-2 and at JAK-3 was 250 to 2500 nM throughout.
Regarding `Oc1ccc(C2=Nc3ccccc3-c3ccnc4[nH]cc2c34)c(Cl)c1` [Compound 63], the inhibitory constant (Ki) at JAK-2 is under 250 nM; on JAK-3, at most 250 nM.
Regarding `Oc1ccc(C2Nc3ccccc3-c3ccnc4[nH]cc2c34)cc1F` (stereo not shown) [Compound 105], the Ki on JAK-3 was at most 250 nM.
On JAK-3, `Oc1ccc(C2Nc3ccccc3-c3ccnc4[nH]cc2c34)c(F)c1` (stereo not shown) [Compound 107] came in with an inhibition constant (Ki) of at most 250 nM.
Take `COC(=O)Nc1ccc(C2c3cn(C(=O)OC)c4nccc(c34)-c3ccccc3N2C(=O)OC)cc1` (stereo not shown) [Compound 101]: the Ki at JAK-2 and at JAK-3 was over 2500 nM in each case.
Turning to `OCCCC1Nc2ccccc2-c2ccnc3[nH]cc1c23` (stereo not shown) [Compound 60], the Ki at JAK-2 was 250 to 2500 nM; on JAK-3, over 2500 nM.
Regarding `COC(=O)c1cc(C2Nc3ccccc3-c3ccnc4[nH]cc2c34)ccc1O` (stereo not shown) [Compound 111], the inhibition constant Ki on JAK-2 and on JAK-3 was over 2500 nM in each case.
`CS(=O)(=O)Nc1ccc(C2Nc3ccccc3-c3ccnc4[nH]cc2c34)cc1` (stereo not shown) [Compound 123] gave an inhibitory constant (Ki) at JAK-3 of over 2500 nM.
As for `Fc1cccc(C2Nc3ccccc3-c3ncnc4[nH]cc2c34)c1` (stereo not shown) [Compound 50], the inhibitory constant (Ki) at JAK-2 is 250 to 2500 nM; on JAK-3, over 2500 nM.
The like results for `Cc1cc(C2Nc3ccccc3-c3ccnc4[nH]cc2c34)ccc1O` (stereo not shown) [Compound 140] were, in that order, under 250 nM and at most 250 nM.
In the case of `Clc1cccc(C2Nc3ccccc3-c3ccnc4[nH]cc2c34)c1` (stereo not shown) [Compound 40], the Ki on JAK-2 and on JAK-3 was 250 to 2500 nM in each case.
For the compound `COc1ccc(C2Nc3ccccc3-c3ccnc4[nH]cc2c34)cc1` (stereo not shown) [Compound 135], the inhibition constant Ki at JAK-2 was under 250 nM; on JAK-3 it was at most 250 nM.
Regarding `Oc1ccc(O)c(C2Nc3ccccc3-c3ccnc4[nH]cc2c34)c1` (stereo not shown) [Compound 72], the Ki on JAK-2 is over 2500 nM; at JAK-3, 250 to 2500 nM.
Regarding `Oc1ccc(C2Nc3ccccc3-c3ncnc4[nH]cc2c34)cc1Br` (stereo not shown) [Compound 82], the figures for the Ki at JAK-2 and on JAK-3 were under 250 nM and at most 250 nM, respectively.
In turn, `c1ccc(COCC2Nc3ccccc3-c3ccnc4[nH]cc2c34)cc1` (stereo not shown) [Compound 1] showed a Ki at JAK-3 of 250 to 2500 nM.
As for `FC(F)(F)Oc1ccc(C2Nc3ccccc3-c3ccnc4[nH]cc2c34)cc1` (stereo not shown) [Compound 134], the Ki at JAK-2 and on JAK-3 was 250 to 2500 nM each time.
On to `Oc1ccc(C2Nc3ccccc3-c3ccnc4[nH]cc2c34)cc1O` (stereo not shown) [Compound 66], for which the Ki was under 250 nM at JAK-2 and at most 250 nM on JAK-3.
Take `CC(C)Oc1ccc(C2Nc3ccccc3-c3ccnc4[nH]cc2c34)cc1` (stereo not shown) [Compound 145]: the Ki on JAK-2 was under 250 nM; at JAK-3, 250 to 2500 nM.
In the case of `O=C1Nc2ccccc2-c2ncnc3[nH]cc(c23)C1c1ccc(O)cc1` (stereo not shown) [Compound 158], the Ki on JAK-2 was under 250 nM; on JAK-3, at most 250 nM.
The like results for `Fc1cccc(F)c1C1Nc2ccccc2-c2ncnc3[nH]cc1c23` (stereo not shown) [Compound 49] were, in that order, under 250 nM and 250 to 2500 nM.
The like results for `Fc1cc(C2Nc3ccccc3-c3ccnc4[nH]cc2c34)ccc1Cl` (stereo not shown) [Compound 39] were, in that order, under 250 nM and 250 to 2500 nM.
The matching figures for `Oc1ccccc1C1Nc2ccccc2-c2ccnc3[nH]cc1c23` (stereo not shown) [Compound 20]: 250 to 2500 nM and 250 to 2500 nM.
Consider `O=C1Nc2ccccc2-c2ncnc3[nH]cc(c23)C1c1ccc(O)c(F)c1` (stereo not shown) [Compound 160], for which the Ki at JAK-2 was under 250 nM; on JAK-3 it was at most 250 nM.
For the compound `Fc1cccc(C2Nc3ncccc3-c3ccnc4[nH]cc2c34)c1` (stereo not shown) [Compound 48], the Ki at JAK-2 and on JAK-3 was 250 to 2500 nM in each case.
For the compound `O=C1Nc2ccccc2-c2ccnc3[nH]cc(c23)C1c1ccc(O)cc1` (stereo not shown) [Compound 125], the inhibition constant Ki at JAK-3 was at most 250 nM.
As for `Cn1cc2c3c(ccnc31)-c1cccnc1NC2c1ccc(O)cc1` (stereo not shown) [Compound 96], the inhibitory constant (Ki) on JAK-2 is under 250 nM; on JAK-3, 250 to 2500 nM.
The matching figures for `FC(F)(F)c1ccccc1C1Nc2ccccc2-c2ccnc3[nH]cc1c23` (stereo not shown) [Compound 19]: 250 to 2500 nM and 250 to 2500 nM.
`Fc1ccc(C2Nc3ccccc3-c3ccnc4[nH]cc2c34)c(F)c1F` (stereo not shown) [Compound 29] came in with an inhibition constant Ki on JAK-3 of 250 to 2500 nM.
With `Oc1ccc(C2Nc3ccccc3-c3ccnc4[nH]cc2c34)cc1I` (stereo not shown) [Compound 75], the inhibition constant Ki on JAK-2 is under 250 nM; at JAK-3, at most 250 nM.
With `CC1=Nc2ccccc2-c2ccnc3[nH]cc1c23` [Compound 51], the inhibition constant (Ki) at JAK-2 and on JAK-3 was 250 to 2500 nM in each case.
Regarding `Fc1ccc(F)c(C2Nc3ccccc3-c3ccnc4[nH]cc2c34)c1` (stereo not shown) [Compound 27], the figures for the Ki on JAK-2 and at JAK-3 were under 250 nM and at most 250 nM, respectively.
At JAK-3, `c1ccc2c(c1)NC(C1CCCCC1)c1c[nH]c3nccc-2c13` (stereo not shown) [Compound 10] returned a Ki of over 2500 nM.
The same measure, in the same setting: the result for `COC(=O)C1(c2ccc([N+](=O)[O-])cc2)Nc2ccccc2-c2ccnc3[nH]cc1c23` (stereo not shown) [Compound 98] reads 250 to 2500 nM.
The compound `COC(=O)C1(c2ccc(O)cc2)Nc2ccccc2-c2ccnc3[nH]cc1c23` (stereo not shown) [Compound 103] yielded an inhibition constant Ki at JAK-3 of at most 250 nM.
As for `CCC1Nc2ccccc2-c2ccnc3[nH]cc1c23` (stereo not shown) [Compound 14], the inhibition constant Ki on JAK-3 lay within 250 to 2500 nM.
Still for that read-out and setting: in the case of `OCCCCC1Nc2ccccc2-c2ccnc3[nH]cc1c23` (stereo not shown) [Compound 59] it was over 2500 nM.
On the same count and under the same terms, in the case of `CC(C)CC1Nc2ccccc2-c2ccnc3[nH]cc1c23` (stereo not shown) [Compound 15] it was over 2500 nM; in that of `O=C(O)c1ccc(C2Nc3ccccc3-c3ccnc4[nH]cc2c34)cc1` (stereo not shown) [Compound 88], over 2500 nM; in that of `OCc1ccc(C2Nc3ccccc3-c3ccnc4[nH]cc2c34)cc1` (stereo not shown) [Compound 154], at most 250 nM.
For the compound `c1ccc(C2Nc3ccccc3-c3ccnc4[nH]cc2c34)cc1` (stereo not shown) [Compound 5], the inhibitory constant (Ki) on JAK-3 was 250 to 2500 nM.
On JAK-3, `Oc1ccc(C2Nc3ccccc3-c3ncnc4[nH]cc2c34)c(F)c1` (stereo not shown) [Compound 118] displayed a Ki of at most 250 nM.
Still for that read-out and setting: in the case of `COC(=O)CC1Nc2ccccc2-c2ccnc3[nH]cc1c23` (stereo not shown) [Compound 156] it was 250 to 2500 nM; in that of `CNC(=O)c1ccc(C2Nc3ccccc3-c3ccnc4[nH]cc2c34)cc1` (stereo not shown) [Compound 91], over 2500 nM; in that of `CC(C)C1Nc2ccccc2-c2ccnc3[nH]cc1c23` (stereo not shown) [Compound 16], over 2500 nM.
Same read-out and setting: the result for `Oc1ccc(C2Nc3ccccc3-c3ccnc4[nH]cc2c34)cc1Br` (stereo not shown) [Compound 77] reads at most 250 nM; that for `c1ccc(CC2Nc3ccccc3-c3ccnc4[nH]cc2c34)cc1` (stereo not shown) [Compound 24], 250 to 2500 nM; that for `CC(C)(C)C1Nc2ccccc2-c2ccnc3[nH]cc1c23` (stereo not shown) [Compound 6], 250 to 2500 nM.
`Oc1ccc(C2Nc3ccccc3-c3ccnc4[nH]cc2c34)cc1` (stereo not shown) [Compound 65] came in with a Ki on JAK-3 of at most 250 nM.

The term Ki denotes the equilibrium dissociation constant of an inhibitor or competing ligand from its target.

Source of the values: US8163732B2, “Tricyclic heteroaryl compounds useful as inhibitors of Janus kinase” (Vertex Pharmaceuticals Incorporated, priority 2005, dated 2012).
